Source: patent publication EP0033789A1, “2-alpha-Methyl-dopaminimino-6,7-dihydroxy-1,2,3,4-tetrahydronaphthalene, its salts, and a process for preparation thereof” (priority 1980, dated 1981)
Where two headings read alike, the source gives them in different places.

System: anesthetized, open-chested dogs
Test: Inotropic, chronotropic and pressor/depressor activities in anesthetized, open-chested dogs (Walton-Brodie strain gauge, ventricular and aortic catheters)
Assay type: in vivo
Settings: for ED50 / ED (75% increase) / ED (100% increase) / ED (150% increase): Canis lupus familiaris; for ED50: read-out: Inotropic Potency CF50; for ED (75% increase): read-out: Inotropic Potency dP/dt75; for ED (100% increase): read-out: Inotropic Potency CF100; for ED (150% increase): read-out: Inotropic Potency dP/dt150; for Cardioselectivity: Change in diastolic blood pressure obtained at CF50 / Inotropic Selectivity: Change in heart rate obtained at CF50: at the dose giving 50% increase in cardiac contractile force; for Cardioselectivity: Change in diastolic blood pressure obtained at dP/dt75 / Inotropic Selectivity: Change in heart rate obtained at dP/dt75: at the dose giving 75% increase in left ventricular dP/dt; for Cardioselectivity: Change in diastolic blood pressure obtained at CF100 / Inotropic Selectivity: Change in heart rate obtained at CF100: at the dose giving 100% increase in cardiac contractile force; for Cardioselectivity: Change in diastolic blood pressure obtained at dP/dt150 / Inotropic Selectivity: Change in heart rate obtained at dP/dt150: at the dose giving 150% increase in left ventricular dP/dt
Experimental: The following tests were conducted: • In anesthetized, open-chested dogs, instrumented with a Walton-Brodie strain gauge to measure cardiac contractile force, a ventricular catheter to measure left ventricular dP/dt and an aortic catheter to measure diastolic blood pressure and heart rate. Contractile force and L.V. dP/dt are indices of cardiac contractility and provide information on the inotropic state of the heart. The experimental standard drugs are compared by normalizing pressor/depressor and heart rate responses to a given inotropic effect. Cardioselective inotropic agents will produce minimal diastolic pressure changes for any given inotropic effect. Likewise, inotropic selective agents will produce minimal heart rate changes for any given inotropic effect.

[1] = dose required to produce 50% increase in cardiac contractile force (CF), means ± SEM
[2] = dose required to produce 75% increase in left ventricular dP/dt, means ± SEM
[3] = dose required to produce 100% increase in cardiac contractile force (CF), means ± SEM
[4] = dose required to produce 150% increase in left ventricular dP/dt, means ± SEM

SMILES | ED50 [1] [µg/kg] | ED (75% increase) [2] [µg/kg] | ED (100% increase) [3] [µg/kg] | ED (150% increase) [4] [µg/kg] | Cardioselectivity: Change in diastolic blood pressure obtained at CF50 (means ± SEM) [mm Hg] | Inotropic Selectivity: Change in heart rate obtained at CF50 (means ± SEM) [BPM] | Cardioselectivity: Change in diastolic blood pressure obtained at dP/dt75 (means ± SEM) | Inotropic Selectivity: Change in heart rate obtained at dP/dt75 (means ± SEM) [BPM] | Cardioselectivity: Change in diastolic blood pressure obtained at CF100 (means ± SEM) [mm Hg] | Inotropic Selectivity: Change in heart rate obtained at CF100 (means ± SEM) [BPM] | Cardioselectivity: Change in diastolic blood pressure obtained at dP/dt150 (means ± SEM) [mm Hg] | Inotropic Selectivity: Change in heart rate obtained at dP/dt150 (means ± SEM) [BPM] | ED50 [µg/kg] | ED (100% increase) [µg/kg] | ED (75% increase) [µg/kg] | ED (150% increase) [µg/kg]
COc1cc2c(cc1OC)CC(NC(C)CCc1ccc(O)cc1)CC2 (stereo not shown) [A, 2-(3-p-hydroxyphenyl-1-methylpropyl) amino-6,7-dimethoxy-1,2,3,4-tetrahydronaphthalene] | 158 | 262 | 333 | 756 | -17 | 5 | -23 mm Hg | 10 | -27 | 14 | -40 | 27 | – | – | – | –
CC(C)NCC(O)c1ccc(O)c(O)c1 (stereo not shown) [F, 4-(1-hydroxy-2-((1-methylethyl)-amino)ethyl)-1,2-benzenediol] | – | 0.04 ± 0.01 | 0.09 ± 0.02 | 0.14 ± 0.05 | -6 ± 2 | 14 ± 2 | -6 ± 2 mm Hg | 14 ± 1 | -15 ± 2 | 34 ± 3 | -16 ± 2 | 41 ± 5 | – | – | – | –
CC(CCc1ccc(O)cc1)NC1CCc2cc(O)c(O)cc2C1 (stereo not shown) [B, 2-(3-p-hydroxyphenyl-1-methylpropyl) amino-6,7-dihydroxy-1,2,3,4-tetrahydronaphthalene] | 56.3 | 125 | 198 | 359 | -13 | -17 | 37 mm Hg | 0 | 57 | 15 | 75 | 32 | – | – | – | –
NCCc1ccc(O)c(O)c1 [E, 4-(2-aminoethyl)-1,2-benzenediol] | 9.1 ± 1 | 9.9 ± 0.7 | 19.6 ± 2.7 | 23.7 ± 3 | -20 ± 6 | 5 ± 5 | -20 ± 7 mm Hg | 5 ± 6 | -12 ± 9 | 12 ± 5 | -10 ± 8 | 13 ± 6 | – | – | – | –
NC1CCc2cc(O)c(O)cc2C1 (stereo not shown) [C, 2-amino-6,7-dihydroxy-1,2,3,4-tetrahydro-naphthalene] | – | – | – | – | 31 ± 9 | -12 ± 9 | 30 + 5 mm Hg | -12 ± 10 | 61 ± 10 | 21 ± 17 | 51 ± 5 | 5 ± 8 | 44.9 ± 3.3 | 119 ± 34.7 | 40.4 ± 3.1 | 75.6 ± 5.8
CC(CCc1ccc(O)cc1)NCCc1ccc(O)c(O)c1 (racemic) [D, (±)-4-(2(3-p-hydroxyphenyl-1-methylpropyl)amino) ethyl-1,2-benzenediol] | 1.4 ± 0.2 | – | 4.4 | 4 ± 0.6 | 3 ± 1 | 3 ± 1 | 4 ± 1 mm Hg | 3 ± 1 | 4 ± 3 | 17 ± 5 | 3 ± 3 | 13 ± 2 | – | – | – | –
